The results in this text go back to patent US8586550B2, “Thiazole derivatives as SGLT2 inhibitors and pharmaceutical composition comprising same” (Green Cross Corporation, priority 2010, dated 2013).

As usually defined, the IC50 is the concentration needed to halve the response being measured.

The test concerns the target T1, Human SGLT2 (hSGLT2) (Homo sapiens, UniProt P31639).
T1 construct: expressed in transfected cells
T1 sequence (P31639 1-672): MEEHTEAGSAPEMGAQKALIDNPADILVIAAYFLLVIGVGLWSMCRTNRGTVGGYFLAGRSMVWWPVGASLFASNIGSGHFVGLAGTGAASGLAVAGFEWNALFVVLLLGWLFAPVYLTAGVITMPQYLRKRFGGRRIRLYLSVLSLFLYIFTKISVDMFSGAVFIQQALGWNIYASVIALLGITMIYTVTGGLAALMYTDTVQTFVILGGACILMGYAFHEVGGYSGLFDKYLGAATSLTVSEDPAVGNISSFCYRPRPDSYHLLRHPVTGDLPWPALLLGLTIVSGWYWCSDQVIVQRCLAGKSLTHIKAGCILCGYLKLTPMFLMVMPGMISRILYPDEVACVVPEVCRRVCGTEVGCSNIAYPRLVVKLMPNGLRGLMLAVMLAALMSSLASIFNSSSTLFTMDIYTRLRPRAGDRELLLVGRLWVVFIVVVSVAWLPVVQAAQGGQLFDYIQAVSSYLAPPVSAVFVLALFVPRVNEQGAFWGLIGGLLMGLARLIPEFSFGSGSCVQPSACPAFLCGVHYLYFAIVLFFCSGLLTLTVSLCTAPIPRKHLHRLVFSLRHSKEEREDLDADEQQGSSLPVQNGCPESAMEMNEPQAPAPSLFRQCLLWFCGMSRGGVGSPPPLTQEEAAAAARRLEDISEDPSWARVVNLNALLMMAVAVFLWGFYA
Description: Sodium-dependent glucose transport (14C-AMG uptake) assay in CHO cells stably expressing hSGLT2. It is filed as cell-based. The settings on record: CHO cells expressing hSGLT2, 14C-AMG uptake, 37° C. for 2 h; single determinations; read-out: hSGLT2 Inhibitory Activity IC50. Put shortly:
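CHO cells stably expressing human SGLT2, preincubated 10 min at 37 °C in sodium-free choline buffer, then 2 h at 37 °C in Na+ buffer with 1 mM AMG plus 8 μM 14C-AMG and inhibitor. Washed cells counted by scintillation; IC50 by nonlinear regression.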
Consider `OC[C@H]1O[C@@H](c2cc(Cc3ncc(-c4cccs4)s3)c(O)c3ccccc23)[C@H](O)[C@@H](O)[C@@H]1O` [Example 124, (2S,3R,4R,5S,6R)-2-(4-Hydroxy-3-((5-(thiophen-2-yl)thiazol-2-yl)methyl)naphthalen-1-yl)-6-(hydroxymethyl)-tetrahydro-2H-pyran-3,4,5-triol], for which the IC50 turned out to be 7.97 nM.
In the case of `CC(C)c1cnc(Cc2cc([C@@H]3O[C@H](CO)[C@@H](O)[C@H](O)[C@H]3O)ccc2Cl)s1` [Example 16, (2S,3R,4R,5S,6R)-2-(4-Chloro-3-((5-isopropylthiazol-2-yl)methyl)phenyl)-6-(hydroxymethyl)-tetrahydro-2H-pyran-3,4,5-triol] it was 51.4 nM; in that of `OC[C@H]1O[C@@H](c2cc(Cc3ncc(-c4cccs4)s3)c(Cl)cc2Cl)[C@H](O)[C@@H](O)[C@@H]1O` [Example 61, (2S,3R,4R,5S,6R)-2-(2,4-Dichloro-5-((5-(thiophen-2-yl)thiazol-2-yl)methyl)phenyl)-6-(hydroxymethyl)tetrahydro-2H-pyran-3,4,5-triol], 4.77 nM.
For the compound `CCCCCCc1cnc(Cc2cc([C@@H]3O[C@H](CO)[C@@H](O)[C@H](O)[C@H]3O)ccc2Cl)s1` [Example 15, (2S,3R,4R,5S,6R)-2-(4-Chloro-3-((5-hexylthiazol-2-yl)methyl)phenyl)-6-(hydroxymethyl)-tetrahydro-2H-pyran-3,4,5-triol], the IC50 came to 5 nM.
In the case of `Cc1ccc([C@@H]2O[C@H](CO)[C@@H](O)[C@H](O)[C@H]2O)cc1Cc1ncc(-c2nccs2)s1` [Example 34, (2S,3R,4R,5S,6R)-2-(3-(2,5′-Bithiazol-2′-ylmethyl)-4-methylphenyl)-6-(hydroxymethyl)tetrahydro-2H-pyran-3,4,5-triol] it was 5.69 nM; in that of `Cc1ccc([C@@H]2O[C@H](CO)[C@@H](O)[C@H](O)[C@H]2O)cc1Cc1ncc(-c2ccsc2)s1` [Example 33, (2R,3S,4R,5R,6S)-2-(Hydroxymethyl)-6-(4-methyl-3-((5-(thiophen-3-yl)thiazol-2-yl)methyl)phenyl)tetrahydro-2H-pyran-3,4,5-triol], 1.28 nM.
Then `CCCCCCCc1cnc(Cc2cc([C@@H]3O[C@H](CO)[C@@H](O)[C@H](O)[C@H]3O)c3ccccc3c2O)s1` [Example 127, (2S,3R,4R,5S,6R)-2-(3-((5-Heptylthiazol-2-yl)methyl)-4-hydroxynaphthalen-1-yl)-6-(hydroxymethyl)-tetrahydro-2H-pyran-3,4,5-triol], with 32.8 nM.
Then `OC[C@H]1O[C@@H](c2ccc(Cl)c(Cc3cnc(-c4ccc(Cl)s4)s3)c2)[C@H](O)[C@@H](O)[C@@H]1O` [Example 189, (2S,3R,4R,5S,6R)-2-(4-Chloro-3-((2-(5-chlorothiophen-2-yl)thiazol-5-yl)methyl)phenyl)-6-(hydroxymethyl)tetrahydro-2H-pyran-3,4,5-triol], with 8.64 nM.
Regarding `CCc1cnc(Cc2cc([C@@H]3O[C@H](CO)[C@@H](O)[C@H](O)[C@H]3O)cc3ccccc23)s1` [Example 105, (2S,3R,4R,5S,6R)-2-(4-((5-Ethylthiazol-2-yl)methyl)naphthalen-2-yl)-6-(hydroxymethyl)-tetrahydro-2H-pyran-3,4,5-triol], the IC50 amounted to 243 nM.
Turning to `OC[C@H]1O[C@@H](c2ccc(Cl)c(Cc3cnc(-c4ccsc4)s3)c2)[C@H](O)[C@@H](O)[C@@H]1O` [Example 190, (2S,3R,4R,5S,6R)-2-(4-Chloro-3-((2-(thiophen-3-yl)thiazol-5-yl)methyl)phenyl)-6-(hydroxymethyl)tetrahydro-2H-pyran-3,4,5-triol], the IC50 was 0.901 nM.
For the compound `OC[C@H]1O[C@@H](c2ccc(Cl)c(Cc3cnc(-c4ccco4)s3)c2)[C@H](O)[C@@H](O)[C@@H]1O` [Example 184, (2S,3R,4R,5S,6R)-2-(4-Chloro-3-((2-(furan-2-yl)thiazol-5-yl)methyl)phenyl)-6-(hydroxymethyl)tetrahydro-2H-pyran-3,4,5-triol], the IC50 was found to be 1.42 nM.
In the case of `CCOc1cc(Cl)c(Cc2ncc(-c3ccoc3)s2)cc1[C@@H]1O[C@H](CO)[C@@H](O)[C@H](O)[C@H]1O` [Example 78, (2S,3R,4R,5S,6R)-2-(4-Chloro-2-ethoxy-5-((5-(furan-3-yl)thiazol-2-yl)methyl)phenyl)-6-(hydroxymethyl)-tetrahydro-2H-pyran-3,4,5-triol] it was 4.35 nM; in that of `OC[C@H]1O[C@@H](c2ccc(Cl)c(Cc3cnc(-c4cc5ccccc5o4)s3)c2)[C@H](O)[C@@H](O)[C@@H]1O` [Example 185, (2S,3R,4R,5S,6R)-2-(3-((2-(Benzofuran-2-yl)thiazol-5-yl)methyl)-4-chlorophenyl)-6-(hydroxymethyl)tetrahydro-2H-pyran-3,4,5-triol], 76.6 nM; in that of `OC[C@H]1O[C@@H](c2cc(Cc3ncc(-c4ccco4)s3)cc3ccccc23)[C@H](O)[C@@H](O)[C@@H]1O` [Example 93, (2S,3R,4R,5S,6R)-2-(3-((5-(Furan-2-yl)thiazol-2-yl)methyl)naphthalen-1-yl)-6-(hydroxymethyl)tetrahydro-2H-pyran-3,4,5-triol], 14.3 nM.
In the case of `OC[C@H]1O[C@@H](c2ccc(Cl)c(Cc3cnc(-c4cnccn4)s3)c2)[C@H](O)[C@@H](O)[C@@H]1O` [Example 195] it was 4.35 nM; in that of `COc1cc(Cl)c(Cc2ncc(-c3ccc(F)cc3)s2)cc1[C@@H]1O[C@H](CO)[C@@H](O)[C@H](O)[C@H]1O` [Example 74, (2S,3R,4R,5S,6R)-2-(4-Chloro-5-((5-(4-fluorophenyl)thiazol-2-yl)methyl)-2-methoxyphenyl)-6-(hydroxymethyl)tetrahydro-2H-pyran-3,4,5-triol], 6.08 nM; in that of `OC[C@H]1O[C@@H](c2ccc(Cl)c(Cc3cnc(-c4cocn4)s3)c2)[C@H](O)[C@@H](O)[C@@H]1O` [Example 191, (2S,3R,4R,5S,6R)-2-(4-Chloro-3-((2-(oxazol-4-yl)thiazol-5-yl)methyl)phenyl)-6-(hydroxymethyl)tetrahydro-2H-pyran-3,4,5-triol], 45.4 nM.
With `C=CCOC(=O)OC[C@H]1O[C@@H](c2ccc(Cl)c(Cc3ncc(-c4ccco4)s3)c2)[C@H](O)[C@@H](O)[C@@H]1O` [Example 163, Allyl ((2R,3S,4R,5R,6S)-6-(4-chloro-3-((5-(furan-2-yl)thiazol-2-yl)methyl)phenyl)-3,4,5-trihydroxytetrahydro-2H-pyran-2-yl)methyl carbonate], the IC50 is 11.4 nM.
In the case of `COc1c(Cc2ncc(-c3ccccc3)s2)cc([C@@H]2O[C@H](CO)[C@@H](O)[C@H](O)[C@H]2O)c2ccccc12` [Example 97, (2R,3S,4R,5R,6S)-2-(Hydroxymethyl)-6-(4-methoxy-3-((5-phenylthiazol-2-yl)methyl)naphthalen-1-yl)-tetrahydro-2H-pyran-3,4,5-triol] it was 6.77 nM; in that of `Cc1ccc([C@@H]2O[C@H](CO)[C@@H](O)[C@H](O)[C@H]2O)cc1Cc1ncc(-c2ccc(F)cc2)s1` [Example 37, (2S,3R,4R,5S,6R)-2-(3-((5-(4-Fluorophenyl)thiazol-2-yl)methyl)-4-methylphenyl)-6-(hydroxymethyl)tetrahydro-2H-pyran-3,4,5-triol], 9.8 nM; in that of `OC[C@H]1O[C@@H](n2cc(Cc3ncc(-c4cccs4)s3)c3ccccc32)[C@H](O)[C@@H](O)[C@@H]1O` [Example 131, (2R,3S,4S,5R,6R)-2-(Hydroxymethyl)-6-(3-((5-(thiophen-2-yl)thiazol-2-yl)methyl)-1H-indol-1-yl)tetrahydro-2H-pyran-3,4,5-triol], 13.8 nM.
Then `OC[C@H]1O[C@@H](c2ccc(F)c(Cc3ncc(-c4ccccc4)s3)c2)[C@H](O)[C@@H](O)[C@@H]1O` [Example 44, (2S,3R,4R,5S,6R)-2-(4-Fluoro-3-((5-phenylthiazol-2-yl)methyl)phenyl)-6-(hydroxymethyl)tetralrydro-2H-pyran-3,4,5-triol], with 30.8 nM.
In the case of `OC[C@H]1O[C@@H](c2ccc(F)c(Cc3ncc(-c4ccc(F)cc4)s3)c2)[C@H](O)[C@@H](O)[C@@H]1O` [Example 45, (2S,3R,4R,5S,6R)-2-(4-Fluoro-3-((5-(4-fluorophenyl)thiazol-2-yl)methyl)phenyl)-6-(hydroxymethyl)tetrahydro-2H-pyran-3,4,5-triol] it was 47.7 nM; in that of `CCc1cnc(Cc2cc([C@@H]3O[C@H](CO)[C@@H](O)[C@H](O)[C@H]3O)c(Cl)cc2Cl)s1` [Example 64, (2S,3R,4R,5S,6R)-2-(2,4-Dichloro-5-((5-ethylthiazol-2-yl)methyl)phenyl)-6-(hydroxymethyl)tetrahydro-2H-pyran-3,4,5-triol], 26.3 nM; in that of “(2S,3R,4R,5S,6R)-2-(4-Chloro-3-((4-phenylthiazol-2-yl)methyl)phenyl)-6-(hydroxymethyl)tetrahydro-2H-pyran-3,4,5-triol [Example 71]”, 1.59 nM.
